Laboratory results published in patent publication US20260294893A1, “NOVEL RAS INHIBITORS” (KHR Biotec GmbH, priority 2022, published 2026).

Key:
sNF96.2 = experiment: RASOpathie-Model; MTT assay for cell viability; type: cell-based; conditions: sNF96.2, 48 h
Experimental: FIG. 5: RASOpathie-Model Sanguinarine chloride; MTT assay for cell viability in 96 well cell culture plate
Cells were treated with Sanguinarine chloride for 48 h and cell viability was evaluated by MTT assay. DMSO-treated cells were set as 1. The results shown are mean±SEM from 3 independent experiments.

HRAS G12V = molecular target: T1, HRAS G12V (Homo sapiens, UniProt P01112, G12V); experiment: NanoBit assay for RAS activation (LgBiT-HRAS G12V / SmBiT-CRAF RBD); type: cell-based; conditions: 2 h with inhibitor, serum free DMEM
T1 construct: CRAF RBD (1-149) fused to SmBiT; transfected cells (HeLa S3 likely), NanoBiT
Experimental: (§1) FIGS. 1a), 1b) and 1c): NanoBit assay for RAS activation (KRAS G12V, NRAS G12V, HRAS G12V)
(§2) N-terminal LgBiT and C-terminal SmBiT construct was purchased from Promega and K, N and HRAS G12V (full length) was cloned with Xho I and Bgl II to LgBit and CRAF Ras binding domain (1-149) was cloned with EcoRI and Bgl II to SmBit. For transfections, 1 μg or 2 μg of (12 well/6 well) plasmids were transfected into cells with 0.5 mM of PEI reagent in 100 μl or 200 μl PBS. One day after transfection, cells were harvested and seeded into 96 well white plates, half area (Greiner). After an additional day the medium was changed to serum free DMEM and the cells were incubated for 2 h with inhibitor. NanoGlo assay was performed according to the manufacturer's instructions. The luminescence was measured using Tecan infinite (Tecan).
(§3) HeLa S3 (DSMZ) were authenticated by Eurofin genomics and cultured in DMEM (10% heat inactivated FBS). NCI-H358 cells were cultured in RPMI-1640 (10% heat inactivated FBS).

KRAS dependent cells = experiment: MTT assay for cell viability; type: cell-based; conditions: 48 h, irrespective of the presence of mutation
Experimental: (§4) FIGS. 4a) and 4b): MTT assay for cell viability in 96 well cell culture plate Cells were treated with Sanguinarine chloride for 48 h and cell viability was evaluated by MTT assay. DMSO-treated cells were set as 1. The results shown are mean±SEM from 3 independent experiments.

BaF3 KRAS G12C = experiment: MTT assay for cell viability; type: cell-based; conditions: Mus musculus, 48 h, 3 independent experiments
Experimental: as §4

BaF3 KRAS G12C/Y96D = experiment: MTT assay for cell viability; type: cell-based; conditions: Mus musculus, 48 h, 3 independent experiments
Experimental: as §4

[1] = tested on: KRAS mutants (G12V, G12C, G12D, G12C/Y96D, G13C, G13D, G13S, Q61K and Q61R); experiment: NanoBiT assay for the RAS GTP-loading in HeLa cells transfected with LgBit-KRAS mutants and SmBit-CRAF-RBD; type: cell-based; conditions: 2 h, serum-free DMEM
Experimental: NanoBiT assay for the RAS GTP-loading was performed in HeLa cells transfected with LgBit-KRAS mutants and SmBit-CRAF-RBD. Cells were treated with Sanguinarine chloride for 2 h in serum-free DMEM. After incubation, the substrate for NanoLuc was added, and the luminescence was measured in a multiplate reader. Data were normalized to cells transfected with the indicated mutant and exposed to DMSO for 2 h. DMSO-treated cells were set as 1. The bars represent mean±SEM from 3 independent experiments.
as §3

NCI-H358 = experiment: Soft agar colony formation assay, MTT; type: cell-based; conditions: Homo sapiens, 3 independent experiments
Experimental: (§5) FIGS. 2a), 2b) and 2c): MTT assay for cell growth
(§6) Metabolic activity was quantified using Cell Proliferation Kit I (Roche, Basel, Switzerland). Cells were seeded in 96-well cell culture plates, using 5000 cells per well for NCI-H358 cells. After treatment, 10 μl of MTT solution was added and incubated for 2 h in CO2 incubator. Then 100 μl of solubilization buffer was added to each well and incubated overnight in CO2 incubator. Cell viability, assessed by the amount of metabolized MTT, was quantified by measuring absorbance at 570 nm.
(§7) MTT assay for the growth of different tumour cell lines with RAS mutations in soft agar with Sanguinarine chloride. Shown are data from three independent experiments. NCI-H358, H358, H2122, ASPC-1, HCT-116, T24 and HT1080 cells were used for the soft agar colony formation assay. After the treatment with Sanguinarine chloride, the colonies were stained with MTT and the value was quantified by measuring absorbance at 570 nm after solubilization. The results represent mean±SEM from 3 independent experiments.
as §3

ASPC1 = experiment: Soft agar colony formation assay, MTT; type: cell-based; conditions: Homo sapiens, 3 independent experiments
Experimental: as §5, §6, §7

[2] = tested on: different RAS-isoform addicted cell-lines; experiment: Soft agar colony formation assay, MTT; type: cell-based
Experimental: as §5, §6, §7

HCT-116 = experiment: Soft agar colony formation assay, MTT; type: cell-based; conditions: Homo sapiens; HCT-116, soft agar, 3 independent experiments
Experimental: as §5, §6, §7

HT1080 = experiment: Soft agar colony formation assay, MTT; type: cell-based; conditions: Homo sapiens, HT-1080, 3 independent experiments
Experimental: as §5, §6, §7

T24 = experiment: Soft agar colony formation assay, MTT; type: cell-based; conditions: Homo sapiens, T-24, 3 independent experiments
Experimental: as §5, §6, §7

NCI-H2122 = experiment: Soft agar colony formation assay, MTT; type: cell-based; conditions: Homo sapiens, 3 independent experiments
Experimental: as §5, §6, §7

KRAS G12V = molecular target: T2, KRAS G12V (Homo sapiens, UniProt P01116, G12V); experiment: NanoBit assay for RAS activation (LgBiT-KRAS G12V / SmBiT-CRAF RBD); type: cell-based; conditions: 2 h with inhibitor, serum free DMEM
T2 construct: CRAF RBD (1-149) fused to SmBiT; transfected cells
Experimental: as §1, §2, §3

NRAS G12V = molecular target: T3, NRAS G12V (Homo sapiens, UniProt P01111, G12V); experiment: NanoBit assay for RAS activation (LgBiT-NRAS G12V / SmBiT-CRAF RBD); type: cell-based; conditions: 2 h with inhibitor, serum free DMEM
T3 construct: CRAF RBD (1-149) fused to SmBiT; transfected cells (HeLa S3 likely), NanoBiT
Experimental: as §1, §2, §3

[3] = tested on: Na+/K+-ATPase transmembrane protein; conditions: through action on the Na+/K+-ATPase; cited from earlier work

T1 sequence (P01112 1-186 G12V): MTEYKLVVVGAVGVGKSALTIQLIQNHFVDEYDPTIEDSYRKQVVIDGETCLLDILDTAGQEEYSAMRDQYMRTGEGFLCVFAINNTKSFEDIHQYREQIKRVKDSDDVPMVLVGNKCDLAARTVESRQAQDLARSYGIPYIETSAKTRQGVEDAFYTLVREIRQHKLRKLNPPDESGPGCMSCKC
T2 sequence (P01116 1-188 isoform P01116-2 G12V): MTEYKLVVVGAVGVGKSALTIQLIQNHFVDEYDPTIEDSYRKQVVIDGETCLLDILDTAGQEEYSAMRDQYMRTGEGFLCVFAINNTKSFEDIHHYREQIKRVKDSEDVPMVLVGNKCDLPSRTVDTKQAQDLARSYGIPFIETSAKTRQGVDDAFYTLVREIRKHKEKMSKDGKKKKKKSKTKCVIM
T3 sequence (P01111 1-186 G12V): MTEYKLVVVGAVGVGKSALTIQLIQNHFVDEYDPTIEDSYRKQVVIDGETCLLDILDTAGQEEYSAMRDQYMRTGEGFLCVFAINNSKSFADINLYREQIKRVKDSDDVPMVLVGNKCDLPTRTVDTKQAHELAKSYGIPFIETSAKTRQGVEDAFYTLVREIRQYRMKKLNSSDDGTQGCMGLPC

SMILES | IC50 (sNF96.2; 3 independent experiments) [µM] | inhibition of RAS protein of RASOpathie (sNF96.2; MTT) | inhibition of H-RAS activation (HRAS G12V) | inhibition of KRAS dependent cells (KRAS dependent cells) | IC50 (BaF3 KRAS G12C) [µM] | IC50 (BaF3 KRAS G12C/Y96D) [µM] | inhibition of different RAS-isoforms (RAS GTP-loading) [1] | IC50 (NCI-H358) [µM] | IC50 (ASPC1) [µM] | growth of RAS-isoform addicted cell-lines [2] | IC50 (HCT-116) [µM] | IC50 (HT1080) [µM] | IC50 (T24) [µM] | IC50 (NCI-H2122) [µM] | inhibition of K-RAS activation (KRAS G12V) | inhibition of N-RAS activation (NRAS G12V) | toxicity to animal cells [3]
C[n+]1cc2c3c(ccc2c2ccc4cc5c(cc4c21)OCO5)OCO3.[Cl-] [Sanguinarine chloride, 13-Methyl-[1,3]benzodioxolo[5,6-c]-1,3-dioxolo[4,5-i]phenanthridinium chloide] | 1.39 | inhibits RAS protein of RASOpathie | inhibits | inhibits KRAS dependent cells irrespective of the presence of mutation | 1.19 | 1.76 | inhibits different RAS-isoforms | 1.45 | 0.97 | blocks the growth of different RAS-isoform addicted cell-lines and stops the growth of cancer | 0.53 | 0.87 | 1.02 | 1.55 | inhibits | inhibits | 
C[n+]1cc2c3c(ccc2c2ccc4cc5c(cc4c21)OCO5)OCO3 [Sanguinarine, 13-Methyl[1,3]benzodioxolo[5,6-c]-1,3-dioxolo[4,5-J]phenanthridinium] |  |  |  |  |  |  |  |  |  |  |  |  |  |  |  |  | kills animal cells through its action on the Na+/K+-ATPase transmembrane protein
